Measurements: ChEMBL document CHEMBL1132102, “Dysidiolide and related gamma-hydroxy butenolide compounds as inhibitors of the protein tyrosine phosphatase, CDC25” (Bioorg Med Chem Lett, 1999)

Assays:
[1] = biological target: T1, M-phase inducer phosphatase 3 (Homo sapiens, UniProt P30307); assay: In vitro inhibitory activity against human Cell division cycle 25 degree C
T1 sequence (P30307 whole entry): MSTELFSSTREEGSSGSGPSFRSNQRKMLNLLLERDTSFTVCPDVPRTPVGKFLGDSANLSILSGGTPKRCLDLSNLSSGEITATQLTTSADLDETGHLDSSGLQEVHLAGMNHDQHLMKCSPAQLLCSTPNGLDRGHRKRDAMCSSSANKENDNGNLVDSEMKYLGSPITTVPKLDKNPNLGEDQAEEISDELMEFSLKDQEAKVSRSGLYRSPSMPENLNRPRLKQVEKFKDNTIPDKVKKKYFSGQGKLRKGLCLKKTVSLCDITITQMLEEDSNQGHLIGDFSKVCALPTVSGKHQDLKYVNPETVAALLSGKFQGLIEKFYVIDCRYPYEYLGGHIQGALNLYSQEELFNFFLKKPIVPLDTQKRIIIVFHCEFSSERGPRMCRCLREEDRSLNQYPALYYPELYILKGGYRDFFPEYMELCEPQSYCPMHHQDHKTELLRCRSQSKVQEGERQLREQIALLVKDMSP

[2] = biological target: T2, M-phase inducer phosphatase 2 (Homo sapiens, UniProt P30305); assay: In vitro inhibitory activity against human Cell division cycle 25B
T2 sequence (P30305 whole entry): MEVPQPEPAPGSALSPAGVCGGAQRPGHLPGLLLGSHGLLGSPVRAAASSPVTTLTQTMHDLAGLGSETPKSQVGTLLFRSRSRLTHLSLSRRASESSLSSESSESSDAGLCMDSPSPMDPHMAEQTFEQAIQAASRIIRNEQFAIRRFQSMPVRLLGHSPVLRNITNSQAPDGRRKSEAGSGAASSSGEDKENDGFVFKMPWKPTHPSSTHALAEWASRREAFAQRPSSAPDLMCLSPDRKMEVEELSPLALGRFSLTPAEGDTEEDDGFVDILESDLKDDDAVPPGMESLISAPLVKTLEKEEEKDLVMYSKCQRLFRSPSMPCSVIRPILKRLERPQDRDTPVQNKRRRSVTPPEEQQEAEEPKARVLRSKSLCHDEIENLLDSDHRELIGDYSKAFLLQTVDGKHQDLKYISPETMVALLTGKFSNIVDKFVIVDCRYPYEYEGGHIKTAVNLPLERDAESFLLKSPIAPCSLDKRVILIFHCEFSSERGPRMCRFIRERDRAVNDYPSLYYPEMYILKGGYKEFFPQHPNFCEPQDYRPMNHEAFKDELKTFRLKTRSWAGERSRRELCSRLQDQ

## C=C(C)CCC[C@@]1(C)CCC[C@@]2(C)C1=CC[C@H](C)[C@]2(C)C[C@@H](O)C1=CC(=O)O[C@@H]1O (stereo in doubt; form 2)
[1]
  IC50: > 2000 µM
[2]
  IC50: > 2000 µM
